Reference: a melting point compilation (Tetko et al.; mined from patent text by program, amines drawn as free bases though some values may be those of a salt)

| melting point [°C] | SMILES |
| --- | --- |
| 242 to 244 | O=C1Cc2c(cccc2C(=O)O)Sc2ccc(F)cc21 |
| 129 to 130 | Cc1ccc(-c2nc3ccc(CN4CCN(C)CC4)cc3[nH]2)cc1C#Cc1ccc(NC(C)C)nn1 |
| 35 to 37 | CCCCCC(=O)C=CI |
| 137 to 138 | NC(=O)C1(c2c(F)cccc2F)CC1 |
| 141 to 145 | Clc1ccc(C#Cc2ccc(-c3ccccc3)s2)cc1 |
| 104 to 106 | CCCN1CCC(n2nc(-c3c(-c4ccccc4)nn4ccccc34)ccc2=O)CC1 |
| 156 to 158 | COC(=O)NC(=S)Nc1ccccc1NC(=O)CCl |
| 113 to 114 | OCCCNc1ccnc(Cl)n1 |
| 263 to 265 | CCc1c2nc(-c3cc(S(C)(=O)=O)ccc3OCC(C)C)[nH]c(=O)c2nn1C1CCNCC1 |
| 236 to 238 | c1ccc(-c2n[nH]c3c2sc2ccccc23)cc1 |
| 135 to 137 | CNC(=O)CNC(=S)c1cccnc1 |
| 121 to 123 | FC(F)Oc1cc(-n2nc3c(c2Cl)CCCC3)c(Cl)cc1Cl |
| 191 to 194 | O=C(Nc1ccc(CN2C(=O)[C@H]3CCC[C@H]3N(C(=O)CN3C(=O)c4ccccc4C3=O)c3ccccc32)cc1)c1ccc(Cl)cc1 (relative stereo) |
| 156 to 157 | O=C1CNC(=O)N1Cc1ccc2ccn(C3CCN(CCc4ccc(F)cc4)CC3)c2c1 |
| 228 to 231 | CCc1cc2c(=O)c3cccc(C(=O)OC)c3n(Cc3ccc(-c4ccccc4-c4nnn[nH]4)cc3)c2s1 |
| > 200 | Cc1nc(O)c([N+](=O)[O-])c(N2CCc3cncnc3CC2)n1 |
| 185 | COc1cc2c(cc1OC)CN(CC(=O)Nc1ccc(N)cc1)CC2 |
| 92 to 96 | COC(=O)CC[C@H]1CC[C@@H](n2c(C)nn(-c3ccc(C#N)cc3)c2=O)CC1 |
| 226 to 228 | COC(=O)c1cc2ccc(C(=O)NCCN3CCOCC3)cc2[nH]1 |
| 327 to 329 | Cc1cc(O)c(C23CC4CC(CC(C4)C2)C3)cc1-c1cccc(C=C2SC(N3CCOCC3)=NC2=O)c1 |
| 225 to 227 | CCCc1ccc2ncc(C(=O)NCc3ccc(Cl)cc3)c(O)c2c1 |
| 67 to 71 | O=C(Cc1ccc2ccccc2c1OCC1CO1)NCCO[N+](=O)[O-] (configuration not stated) |
| > 300 | N#CC(=NNc1ccc(C2=NNC(=O)CC2)cc1)C(N)=C(C#N)C#N |

| melting point [°C] | SMILES |
| --- | --- |
| 61 to 62 | COc1ccc(C=CC(=O)C2C(=O)CCC2=O)cc1O |
| 279 to 282 | O=c1c(Br)c[nH]c2c([N+](=O)[O-])cccc12 |
| 170 | C/C=C/CC(=O)N[C@H]1CC[C@H](CCN2CCN(c3nccc4c3OCC4)CC2)CC1 |
| 149 to 151 | Clc1nc(-n2cccn2)ncc1Cc1ccccc1 |
| 161 to 163 | CC(C)(NC(=O)CCn1cnc(C=O)c1)c1ccc(Cl)c(Cl)c1 |
| 204 to 206 | COc1ccc(Cn2c(=S)[nH]c(=S)c3[nH]c(C(C)C)nc32)cc1OC1CCCC1 |
| 194 to 196 | CC(C)(C)C(=O)c1cn(COCC[Si](C)(C)C)c2ncc(-c3ccc4c(ccn4Cc4ccccn4)c3)nc12 |
| 42 to 47 | O=C(CNc1ccc2[nH]ncc2c1)N1CCC(Cc2ccccc2)CC1 |
| 134 to 136 | CCOc1nc(N)c2ncn(C3CCCCC3)c2n1 |
| 91 to 93 | CCOC(=O)COc1ccc2c(c1)C(=O)C(Br)CC2 (configuration not stated) |
| 147 to 149 | O=Cc1ccc(-c2ccccc2-c2nnn(C(c3ccccc3)(c3ccccc3)c3ccccc3)n2)cc1 |
| 117 to 118 | CCCCCCCCCCCCc1ccc(S(=O)(=O)Nc2nnc(C(C)(C)C)s2)cc1 |
| 178 to 179 | Cn1cc(-c2cc3cccnc3[nH]2)c2cc(C(=O)NC(CO)CO)ccc21 |
| 199 | Cc1cccc(N2CCOCC2)c1NC(N)=S |
| 136 to 137 | O=C1CC(c2ccc(Oc3ccc(C(F)(F)F)cc3)cc2)Cc2ccccc21 (configuration not stated) |
| 105 to 115 | CN(C)c1cccc2c(S(=O)(=O)NCC(=O)N3CCCC3C(=O)NC(C=O)CCCN(C(=N)N)C(=O)OCc3ccccc3)cccc12 (configuration not stated) |
| 118 to 119 | CC(=O)Nc1cccc(OCc2ccccc2)c1CCOC(C)=O |
| 181 to 183 | Brc1ccc(Br)c2nsnc12 |
| 68 to 73 | CCCCOc1coc(CO)cc1=O |
| 191 to 192 | Cc1cccc(-c2nc3ccc(Cl)nn3c2-c2ccnc(NC3CCCCC3)c2)c1 |
| 190 to 193 | CNC(=NC#N)NCCCn1cc(C2=C(c3cn(C)c4ccccc34)C(=O)NC2=O)c2ccccc21 |
| 141 to 142 | Cc1cccc(C)c1N(CCCC(=O)NCC(=O)O)C(=O)c1ccc(Cl)cc1 |
| 95 to 96.5 | CN(C)Cc1cccc(OCCCNc2nc(N)nn2C)c1 |

| melting point [°C] | SMILES |
| --- | --- |
| 73 to 76.5 | CCOC(=O)CCc1ccnc(O)c1 |
| 130 | NC[C@@H]1CNc2cccc(-c3cc(Cl)ccc3Cl)c2O1 |
| 87 to 88 | CC(C)(C)OC(=O)C1C=CCn2c(=O)n(CCCl)c(=O)n21 (configuration not stated) |
| 190 to 191 | CCCCc1nc2ccn(Cc3cccc(C(=N)N)c3)c(=O)c2n1Cc1ccc2ccc(C(=N)N)cc2c1 |
| 73 to 76 | CC(=Cc1ccsc1Cl)[N+](=O)[O-] |
| 121 to 122 | CNC1Cc2ccccc2C1Nc1ccccc1 (configuration not stated) |
| 120 | COC(=O)c1ccc(OC)c(NC(=NCl)c2ccc(Cl)cc2Cl)c1 |
| 46.5 to 47.5 | CCOC(=O)c1c(C(F)(F)F)nc(C(F)(F)F)c(C(=O)OCC)c1OC |
| 222 | Cc1nc(N)nc(N)c1-c1ccc(Cl)cc1Cl |
| 130 to 131 | COC(=O)c1cc(OCc2cn(-c3ccc(C(F)(F)F)cn3)nc2C)nn1C |
| 182 to 183 | CC(=O)Nc1ccc(CN2CCC(C(c3ccccc3)c3ccccc3)CC2)cc1 |
| 162 to 163 | O=C(O)c1cc2c(n(CC3CCCCC3)c1=O)CCCCCC2 |
| 126 to 130 | Nc1cc(F)c(Cl)c(Br)c1Cl |
| 122 | CCN(C(=O)Cc1c(F)cccc1F)C(c1cnccc1C(F)(F)F)C(C)C (configuration not stated) |
| 160 to 162 | Cc1cc(-c2nc3ccccc3c(=O)n2-c2ccc(C(C)C)cc2)cc(C)c1OCCO |
| 163 to 164 | CCOC(=O)c1c(Cn2ccnc2CC)nc2cc(OC)c(OC)cc2c1-c1ccc(OC)c(OC)c1 |
| 256 to 258 | CNC(=O)c1c(N)n(C2CCCC2)c2nc(Cl)ccc2c1=O |
| 269 to 272 | O=C(O)COc1c(-c2ccccc2)c(=O)[nH]c2cc(Cl)ccc12 |
| 180 to 182 | O=C(Nc1cccc(S(=O)(=O)N2CCCC2CO)c1)c1cnn2c(C3CC3)cc(-c3ccc(Cl)cc3)nc12 (configuration not stated) |
| 160 to 161 | COC(=O)c1ccc(-c2nc(-c3ccc(OC(F)F)cc3)co2)cc1 |
| 275 to 278 | CC(c1oc2ccccc2c(=O)c1-c1cccc(F)c1)n1nc(-c2ccc(CN)s2)c2c(N)ncnc21 (configuration not stated) |
| 57 to 61 | CNc1nc(F)c(OC(F)F)c(Cl)n1 |

| SMILES | melting point [°C] |
| --- | --- |
| CC(=O)Nc1cccc2c1Oc1ccccc1C21CCN(C)CC1 | 176 to 178 |
| CSc1ncc(C2=NCC(C)(C)O2)cc1Cl | 113 to 115 |
| O=C(Cl)c1ccc(CBr)cc1 | 56 to 58 |
| COc1cccc2c(=O)c3c(O)cc(OCC(S)CCl)cc3oc12 (configuration not stated) | 125 |
